# Activity calls are given as the source filed them.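 The calls were made as follows: active = IC50 against the VIM-2 bacterial beta-lactamase enzyme at or below a set limit; inactive = IC50 above that set limit.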
# Target: VIM-2 metallo-beta-lactamase (Pseudomonas aeruginosa) (UniProt Q932Y6)
# Test: VIM-2 metallo-beta-lactamase inhibitor potency, dose response, biochemical, epi-absorbance readout, selective inhibitors (AID 1919)
# Conditions: purified VIM-2, nitrocefin hydrolysis, epi-absorbance fluorescence
row,Compound,IC50
1,S=c1[nH]nc(-c2ccco2)n1-c1cccc2ccccc12,inactive
2,Cc1cc(=O)oc2c3c(cc(OCC(=O)N[C@@H](Cc4ccccc4)C(=O)O)c12)OC(C)(C)CC3,inactive
3,Fc1ccccc1-c1n[nH]c(=S)n1Cc1ccccc1,inactive
4,S=c1[nH]nc(-c2cccs2)n1C1CCCCC1,6.69 µM
5,C=CCn1c(C2CC2)n[nH]c1=S,inactive
6,O=C(CSc1nnc(NC(=O)C2CC2)s1)NCc1ccccc1Cl,inactive
7,S=c1[nH]nc(-c2ccc3ccccc3n2)n1-c1ccc2c(c1)OCCO2,inactive
8,CC(C)(C)c1ccc(COc2ccsc2C(=O)O)cc1,inactive
9,Cc1cc(=O)oc2c3c(cc(OCC(=O)N4CCC[C@H]4C(=O)O)c12)OC(C)(C)CC3,inactive
10,CC1=C(C(=O)O)N2C(=O)C(NC(=O)c3nn(C)cc3[N+](=O)[O-])C2SC1 (stereo not drawn),inactive
11,COc1ccccc1-c1n[nH]c(=S)n1Cc1ccco1,inactive
12,O=C(CSc1nnc(NC(=O)c2ccccc2[N+](=O)[O-])s1)NCc1ccco1,6.93 µM
13,CCn1c(-c2nn(-c3ccccc3)ccc2=O)n[nH]c1=S,inactive
14,Cc1cc(C(=O)OCC(=O)NC(=O)c2cccn2C)c2ccccc2n1,> 59.6 µM (inactive)
15,S=c1[nH]nc(-c2cccs2)n1Cc1ccccc1,4.09 µM
16,CCCCn1c(-c2nn(C)c(C)c2Cl)n[nH]c1=S,5.37 µM
17,Cc1cc(C)n(-c2nc(SCC(=O)O)c3c4c(sc3n2)COC(C)(C)C4)n1,inactive
18,O=C(CSc1nnc(NC(=O)c2c(F)cccc2F)s1)NCc1ccccc1,9.26 µM
19,CSc1nc(SCC(=O)O)c2c3c(sc2n1)COC(C)(C)C3,inactive
20,Cc1ccccc1C(=O)Nc1nnc(SCC(=O)NCc2ccco2)s1,3.01 µM
21,O=C(CCN1C(=O)/C(=C/c2ccccc2F)SC1=S)NCCCn1ccnc1,6.45 µM
22,Cn1ccnc1SCC(=O)Nc1ccc2nc(SCC(=O)NC3CC3)sc2c1,inactive
23,O=[N+]([O-])c1ccc(-c2ccccc2)c([As](=O)(O)O)c1,0.748 µM
24,CCOC(=O)N=S(N)(=O)c1ccccc1 (stereo not drawn),inactive
25,O=C(c1ccco1)N1N=C(c2ccc(Cl)cc2)CC1c1ccco1 (stereo not drawn),7.31 µM
26,CCCc1cc(=O)oc2c3c(cc(OCC(=O)N4CCC[C@H]4C(=O)O)c12)OC(C)(C)CC3,6.62 µM

row,Compound,IC50
1,CCCC(=O)Nc1nnc(SCC(=O)NCc2cccs2)s1,inactive
2,Cc1c(C)c2c(OCC(=O)N3CCC[C@H]3C(=O)O)cc3c(c2oc1=O)CCC(C)(C)O3,1.73 µM
3,CC1CCCCC1n1c(-c2cccnc2)n[nH]c1=S (stereo not drawn),inactive
4,COc1ccc(-c2cc(C(F)(F)F)nc(N3CCN(C)CC3)n2)cc1,> 59.6 µM (inactive)
5,O=Cc1c(NCc2ccc(Cl)cc2)c2ccccc2[nH]c1=O,inactive
6,CCCn1c(C(C)C)n[nH]c1=S,inactive
7,O=C(CSc1nnc(NC(=O)c2cc(Br)ccc2Cl)s1)NCC1CCCO1 (stereo not drawn),inactive
8,CSC[C@H](NC(=O)COc1cc2c(c3oc(=O)c(C)c(C)c13)CCC(C)(C)O2)C(=O)O,inactive
9,O=c1[nH]c2c(s1)C(c1cccnc1)C1C3CCC(C3)C1S2 (stereo not drawn),0.0544 µM
10,CCCCn1c(-c2sccc2C)n[nH]c1=S,4.73 µM
11,S=c1[nH]nc(-c2ccccc2)n1CC1CCCO1 (stereo not drawn),inactive
12,COc1ccc2[nH]c(C(=O)O)c(CCN3C(=O)c4ccc(C(=O)O)cc4C3=O)c2c1,1.43 µM
13,S=c1[nH]nc(C2CC2)n1Cc1ccco1,9.32 µM
14,Cc1c(C)c2c(OCC(=O)N[C@@H](C)C(=O)O)cc3c(c2oc1=O)CCC(C)(C)O3,4.44 µM
15,CC1CCCC(C)N1C(=O)CSc1nnc(NC(=O)c2cccs2)s1 (stereo not drawn),inactive
16,O=C1Nc2cc(C(=O)N3CCC(N4CCCCC4)CC3)ccc2S/C1=C\c1ccccc1,inactive
17,CC(C)(C)C(=O)Nc1nnc(SCC(=O)NCc2cccs2)s1,2.62 µM
18,Cc1ccc(S(=O)(=O)n2[nH]c(=O)cc2NC(=O)c2cccs2)cc1,0.453 µM
19,O=C(CSc1nnc(NC(=O)C2CCCCC2)s1)NCc1ccco1,6.64 µM
20,O=C(CSc1nnc(NC(=O)c2cccc(F)c2)s1)NCc1ccco1,> 59.6 µM (inactive)
21,CCN(CC)C(=O)CSc1nc2ccc(NC(=O)CSc3nccn3C)cc2s1,inactive
22,O=C(O)c1[nH]c2ccc(Br)cc2c1CCN1C(=O)c2cccc([N+](=O)[O-])c2C1=O,1.98 µM
23,S=c1[nH]nc(-c2ccccc2)n1Cc1ccccc1,inactive
24,O=c1c2ccccc2cnn1Cc1n[nH]c(=S)n1C1CC2CCC1C2 (stereo not drawn),inactive
25,O=C(O)C1Sc2[nH]c(=O)sc2C2c3cc(Cl)ccc3OC(=O)C12 (stereo not drawn),> 59.6 µM (inactive)
26,S=c1[nH]nc(-c2ccccc2)n1C1C=CCCC1 (stereo not drawn),inactive

row,Compound,IC50
1,Cc1cccc(C2c3[nH]c4ccccc4c3CCN2C(=O)c2cc(CC(C)C)[nH]c(=O)n2)n1 (stereo not drawn),7.93 µM
2,O=C(CSc1nnc(NC(=O)c2ccccc2)s1)NCc1ccco1,> 59.6 µM (inactive)
3,S=c1[nH]nc(Cn2c(-c3ccccn3)nc3ccccc32)n1-c1ccc2c(c1)OCCO2,inactive
4,CC(C)(C)C(=O)Nc1nnc(CSCc2ccccc2F)s1,4.99 µM
5,Cc1nn(CCc2n[nH]c(=S)n2-c2cccc(Cl)c2)c(C)c1[N+](=O)[O-],inactive
6,O=C(O)c1[nH]c2ccc(Cl)cc2c1CCN1C(=O)c2ccccc2C1=O,1.29 µM
7,Cc1ccc(-n2c(-c3nn(C)c(C)c3Cl)n[nH]c2=S)cc1,inactive
8,Cc1n[nH]c(C)c1CCCCOc1ccc([N+](=O)[O-])cc1,inactive
9,Cc1ccc(-c2n[nH]c(=S)n2-c2ccccc2)cc1,> 59.6 µM (inactive)
10,CC(=O)c1ccc(-c2ccc(Cn3c(C)nc4cc(N)c(C)nc43)cc2)cc1,> 59.6 µM (inactive)
11,COc1cc2c(cc1OC)C(C)N(C(=O)c1nccnc1C(=O)O)CC2 (stereo not drawn),inactive
12,S=c1[nH]nc(C2CC2)n1Cc1ccccc1,3.35 µM
13,O=C(O)CC/C(=C\c1cc([N+](=O)[O-])ccc1Cl)c1nc2ccccc2s1,inactive
14,Cc1c(Cl)c(-c2n[nH]c(=S)n2-c2ccc(F)cc2)nn1C,inactive
15,Cc1cccc(C(=O)Nc2nnc(SCC(=O)NCc3ccco3)s2)c1,> 59.6 µM (inactive)
16,COc1cccc(-n2c(CNC(=O)OC(C)(C)C)n[nH]c2=S)c1,inactive
17,Cc1c(OCC(=O)N2CCC[C@@H]2C(=O)O)ccc2c3c(c(=O)oc12)CCC3,inactive
18,Cc1c(C)c2ccc(OCC(=O)N3CCC[C@@H]3C(=O)O)c(C)c2oc1=O,6.07 µM
19,COc1ccccc1-n1c(-c2ccco2)n[nH]c1=S,inactive
20,CC(C)(C)c1ccc(-c2n[nH]c(=S)n2CCCN2CCOCC2)cc1,inactive
21,CC(C)Cn1c(-c2ccco2)n[nH]c1=S,inactive
22,COc1ccccc1C(=O)Nc1nnc(SCC(=O)NCc2ccco2)s1,6.48 µM
23,Cc1ccc(-c2c(C(=O)O)c(C(=O)O)c3n2CSC3)cc1,9.91 µM
24,C=C(C)Cn1c(-c2cccs2)n[nH]c1=S,5.07 µM
25,O=C(O)c1c(C(=O)O)c(-c2ccc(Br)cc2)n2c1CSC2,4.78 µM
26,O=C1Nc2cc(C(=O)NCCCN3CCOCC3)ccc2S/C1=C/c1ccccc1F,inactive

row,Compound,IC50
1,O=C(CSc1nnc(NC(=O)c2ccccc2F)s1)NCc1ccc(F)cc1,inactive
2,O=P(O)(O)c1ccccc1OCc1ccccc1,2.44 µM
3,O=C(O)Cn1cccc1C(=O)c1ccccc1,inactive
4,CCCCn1c(-c2ccoc2C)n[nH]c1=S,inactive
5,Cn1c(-c2sccc2OCc2ccccc2)n[nH]c1=S,5.45 µM
6,Cc1cccc(-n2c(C)n[nH]c2=S)c1C,> 59.6 µM (inactive)
7,COCC(=O)Nc1nnc(SCC(=O)NCc2cccs2)s1,9.67 µM
8,Cc1cc(OCC(=O)N2CCC[C@@H]2C(=O)O)c2c(C)c(C)c(=O)oc2c1,inactive
9,CCCCc1cc(=O)oc2c3c(cc(OCC(=O)N4CCC[C@H]4C(=O)O)c12)OC(C)(C)CC3,inactive
10,O=C(O)C(NC(=O)c1ccccc1)=C(Cl)Cl,inactive
11,Cc1cc(OCc2cc(C(=O)O)oc2C)c2c3c(c(=O)oc2c1)CCCC3,1.49 µM
12,O=P(O)(O)c1ccccc1OCCCCCOc1ccccc1P(=O)(O)O,2.4 µM
13,COCC(C)NC(=O)c1cc2cccc([N+](=O)[O-])c2[nH]1 (stereo not drawn),inactive
14,NC(=O)SCC(=O)Nc1ccccc1C(=O)O,inactive
15,O=c1[nH]c(SCc2n[nH]c(=S)n2-c2ccccc2)nc2sc3c(c12)CCC3,> 59.6 µM (inactive)
16,CCCCn1c(-c2nn(C)cc2Cl)n[nH]c1=S,4.2 µM
17,COc1ccc(-c2n[nH]c(=S)n2-c2ccc3c(c2)OCCO3)cc1OC,inactive
18,O=C(O)c1ccccc1Sc1ncnc2sc3c(c12)CCC3,inactive
19,C=C(c1cccc2ccccc12)P(=O)(O)O,6.81 µM
20,CC(C)(C)CC(=O)Nc1nnc(SCC(=O)NCc2cccs2)s1,inactive
21,CCc1cc(=O)oc2c(C)c(OCC(=O)N3CCC[C@@H]3C(=O)O)ccc12,inactive
22,CCCc1cc(=O)oc2c3c(cc(OCC(=O)N[C@@H](C)C(=O)O)c12)OC(C)(C)CC3,inactive
23,S=c1[nH]nc(-c2ccco2)n1Cc1ccccc1,6.48 µM
24,CCOC(=O)c1[nH]c(C(=O)O)c(CCC(=O)OC)c1C,inactive
25,O=C(O)c1ccccc1C(=O)c1cccc2ccccc12,inactive

# From PubChem BioAssay AID1919 (The Scripps Research Institute Molecular Screening Center, 2009)
